Reference: US9422262B2, “Compounds and methods for treating diseases mediated by protease activated receptors” (The Broad Institute, Inc., priority 2010, dated 2016)

What was measured:
mouse PAR4 = target: T1, mouse PAR4 (Mus musculus, UniProt O88634); test: PAR4-mediated aggregation of mouse platelets; assay type: cell-based; conditions: FIG. 4A
T1 construct: Aggregation studies using mouse platelets; endogenous in cells; host or cells: mouse platelets
T1 sequence (O88634 17-396): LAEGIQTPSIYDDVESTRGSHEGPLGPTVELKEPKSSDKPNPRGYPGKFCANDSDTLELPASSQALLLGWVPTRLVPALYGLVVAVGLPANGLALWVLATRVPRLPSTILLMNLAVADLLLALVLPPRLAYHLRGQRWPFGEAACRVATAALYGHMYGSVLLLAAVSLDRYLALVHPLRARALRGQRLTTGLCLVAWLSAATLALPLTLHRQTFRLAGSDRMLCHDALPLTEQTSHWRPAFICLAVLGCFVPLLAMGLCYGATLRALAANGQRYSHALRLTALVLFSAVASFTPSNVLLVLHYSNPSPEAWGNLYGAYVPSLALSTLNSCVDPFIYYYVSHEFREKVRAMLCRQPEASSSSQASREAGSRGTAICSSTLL

PAR1 = target: T2, PAR1 (Homo sapiens, UniProt P25116); test: P-selectin surface expression on washed platelets stimulated with SFLLRN (flow cytometry); assay type: cell-based; parameters: endogenous in cells; host or cells: platelets (platelet-rich plasma; washed platelets from individual donors)
T2 sequence (P25116 22-425): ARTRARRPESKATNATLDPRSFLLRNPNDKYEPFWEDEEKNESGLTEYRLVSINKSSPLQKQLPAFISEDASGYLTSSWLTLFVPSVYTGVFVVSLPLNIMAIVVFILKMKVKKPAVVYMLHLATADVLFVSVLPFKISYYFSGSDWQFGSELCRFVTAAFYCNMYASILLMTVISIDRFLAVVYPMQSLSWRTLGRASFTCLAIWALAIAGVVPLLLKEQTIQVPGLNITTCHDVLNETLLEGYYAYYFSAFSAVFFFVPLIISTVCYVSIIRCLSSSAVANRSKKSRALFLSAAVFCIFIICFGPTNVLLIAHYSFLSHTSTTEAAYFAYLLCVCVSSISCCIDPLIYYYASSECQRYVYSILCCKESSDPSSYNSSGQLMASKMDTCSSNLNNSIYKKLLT
Description: For this assay, the probe is incubated with washed platelets obtained from individual donors. Platelets are subsequently stimulated with 5 μM SFLLRN. After 15 minutes, phycoerythrin-labeled anti-P-selectin antibody (BD Biosciences) is added to the incubation mixture. Following a 20-minute incubation, a sample is analyzed by flow cytometry for staining of P-selectin.
P-selectin surface expression was monitored to detect platelet activation.

platelets = test: P-selectin surface expression on platelets activated with other platelet agonists; assay type: cell-based, human; conditions: FIG. 1A
Description: (§1) To confirm the specificity of compound 1 for PAR1, platelets were incubated with compound 1 and subsequently activated with a variety of platelet agonists. P-selectin surface expression was monitored to detect platelet activation. […] In contrast, an IC50 for inhibition of other agonists was not reached even at concentrations >30-fold its IC50 for PAR1-mediated secretion. To further evaluate whether PAR1 is the target of compound 1, we tested the ability of the compound to inhibit Ca^2+ flux in HEK293 cells overexpressing recombinant PAR1.

[1] = Stability in human plasma; assay type: in vitro ADME
From the text: (§2) Since there are also situations in which longer term anticoagulation is desired, we performed further studies in the thrombus formation model to assess analogs of compound 1 that may have a more long-lived effect. […] This instability in mouse plasma may have contributed to its short half-life of efficacy in vivo.

PAR4 = target: T3, PAR4 (Homo sapiens, UniProt Q96RI0); test: Platelet activation induced through PAR4; assay type: cell-based; conditions: FIG. 1A
T3 construct: endogenous in cells; host or cells: platelets
T3 sequence (Q96RI0 18-385): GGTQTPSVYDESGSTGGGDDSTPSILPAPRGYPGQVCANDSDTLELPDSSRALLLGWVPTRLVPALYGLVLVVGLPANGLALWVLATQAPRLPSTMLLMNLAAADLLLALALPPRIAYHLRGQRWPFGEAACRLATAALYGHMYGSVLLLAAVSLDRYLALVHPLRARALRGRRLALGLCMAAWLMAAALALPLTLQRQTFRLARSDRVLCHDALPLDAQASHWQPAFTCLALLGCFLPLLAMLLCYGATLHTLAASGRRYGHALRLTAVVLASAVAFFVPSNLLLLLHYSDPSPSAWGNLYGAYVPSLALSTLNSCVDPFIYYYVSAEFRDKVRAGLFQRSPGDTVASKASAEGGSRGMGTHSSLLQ
Description: as §1

permeabilized platelets = test: GTP-γ-S induced P-selectin surface expression in permeabilized platelets; assay type: cell-based, human; conditions: FIG. 1C
Description: as §1

[2] = Stability in mouse plasma; assay type: in vitro ADME
From the text: as §2

cAMP production = cAMP production in washed platelets (competitive immunoassay); assay type: cell-based, human; conditions: 10 μM, PGE1 as control
Description: For this assay, platelets obtained from individual donors were washed and incubated with the probe. Platelets exposed to PGE1 (which causes elevation of platelet cAMP levels) are used as controls. Following incubation, platelets are lysed and evaluated in a commercially available competitive immunoassay of cAMP. Compounds that raise cAMP levels less than 50% of that of PGE1 are considered negative in this assay.

[3] = system: Gα12 signaling downstream of PAR1; test: PAR1-mediated transmembrane resistance (TER) in MDCK cells overexpressing Gα12; assay type: cell-based; conditions: FIG. 3B
From the text: This pattern of inhibition is consistent with that of an allosteric inhibitor. […] This observation raised the possibility that compound 1 blocks PAR1 signaling through Gαq (which mediates platelet aggregation downstream of PAR1), but not Gα12/13 (which mediates shape change downstream of PAR1). A previously identified PAR1 inhibitor, 3,5-difluoro aminoisoxazole (3,5-DFAI), inhibited both shape change and aggregation. Shape change that occurred in the presence of compound 1 was blocked by the Rho kinase inhibitor Y27632, confirming participation of Rho kinase downstream of Gα12/13 in compound-1-resistance shape change (FIG. 3A). […] PAR1-mediated decrease in TER in these cells is dependent on Gα12. […] In contrast, 3,5-DFAI inhibited SFLLRN-mediated decrease in TER (FIG. 3B) and compound 1 inhibited Gαq-mediated Ca^2+ flux in these MDCK cells (FIG. 3C).

CCCC(=O)Nc1cccc(NC(=O)c2ccccc2Br)c1 [Compound 1]
PAR4-mediated aggregation of mouse platelets (mouse PAR4): inhibits
inhibition of the expression of P-selectin (PAR1; 1 μM compound, washed platelets, activation with 5 μM SFLLRN): 90%
IC50 (PAR1; FIG. 1A, read-out: IC50, activation mediated through PAR1 (P-selectin surface expression)): ~0.3 µM
pattern of inhibition of PAR1-mediated platelet activation (PAR1; varying concentrations of compound and SFLLRN, FIG. 2): non-competitive inhibition
concentration tested without reaching an IC50 for other agonists, relative to IC50 for PAR1-mediated secretion (platelets): > 30 fold
IC50 for inhibition of other agonists (platelets; P-selectin surface expression): not reached
stability in human plasma [1]: good stability
platelet activation through PAR4 (PAR4): without inhibiting
P-selectin surface expression induced by GTP-γ-S (permeabilized platelets): fails to inhibit
remaining after 5 hour incubation in mouse plasma [2]: 1.7%
modulation of cAMP production (cAMP production): inactivity
PAR1-mediated (SFLLRN) change in TER [3]: failed to inhibit
